Where “and” joins values, the source holds several entries; their conditions need not be identical. Identical values can stand only once. Toxic doses and inconclusive results are not listed. How the source made its calls: active means survival T/C of 150% or more; inactive means T/C below 125% in these data.
Test system: CD2F1 mice, L1210 leukemia ip, survival T/C
Assay: NCI In Vivo Anticancer Drug Screen. Data for tumor model L1210 Leukemia (intraperitoneal) in CD2F1 (CDF1) mice
Conditions: higher = longer survival
How it was run: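 Implant tumor; dose compound or vehicle; measure endpoint in both groups; report treated divided by control.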

[1] = endpoint: mean survival time, dose: 12.5 mg/kg/injection, schedule: Q01DX005 (ip), vehicle: other
[2] = endpoint: mean survival time, dose: 25.0 mg/kg/injection, schedule: Q01DX005 (ip), vehicle: other
[3] = endpoint: mean survival time, dose: 50.0 mg/kg/injection, schedule: Q01DX005 (ip), vehicle: other
[4] = endpoint: mean survival time, dose: 100.0 mg/kg/injection, schedule: Q01DX005 (ip), vehicle: other
[5] = endpoint: mean survival time, dose: 50.0 mg/kg/injection, schedule: Q01DX009 (ip), vehicle: saline with Tween-80
[6] = endpoint: mean survival time, dose: 100.0 mg/kg/injection, schedule: Q01DX009 (ip), vehicle: saline with Tween-80
[7] = endpoint: mean survival time, dose: 50.0 mg/kg/injection, schedule: Q04DX002 (ip), vehicle: saline with Tween-80
[8] = endpoint: mean survival time, dose: 100.0 mg/kg/injection, schedule: Q04DX002 (ip), vehicle: saline with Tween-80
[9] = endpoint: mean survival time, dose: 200.0 mg/kg/injection, schedule: Q04DX002 (ip), vehicle: saline with Tween-80
[10] = endpoint: mean survival time, dose: 200.0 mg/kg/injection, schedule: Q01DX009 (ip), vehicle: saline with Tween-80
[11] = endpoint: mean survival time, dose: 100.0 mg/kg/injection, schedule: Q01DX001 (ip), vehicle: saline
[12] = endpoint: mean survival time, dose: 200.0 mg/kg/injection, schedule: Q01DX001 (ip), vehicle: saline
[13] = endpoint: mean survival time, dose: 400.0 mg/kg/injection, schedule: Q01DX001 (ip), vehicle: saline
[14] = endpoint: mean survival time, dose: 25.0 mg/kg/injection, schedule: Q04DX002 (ip), vehicle: saline with Tween-80

Measured: T/C

N#CC1=C(NC2OCC(O)C(O)C2O)CCC1 (centres undefined)
inactive: [1] 108 % of control | [2] 95 % of control | [3] 98 % of control | [4] 98 % of control | endpoint: mean survival time, dose: 200.0 mg/kg/injection, schedule: Q01DX005 (ip), vehicle: other 89 % of control

COc1cccc2c1C(=O)c1c(OC)c(CBr)cc(OC)c1C2=O
inactive: [1] 96 % of control | [2] 101 % of control | [3] 96 % of control | [4] 86 % of control

O=C(Nc1ccccc1)c1ccccc1C(O)(c1ccccc1)c1ccccn1 (centres undefined)
inactive: endpoint: mean survival time, dose: 100.0 mg/kg/injection, schedule: Q04DX003 (ip), vehicle: saline with Tween-80 97 % of control | endpoint: mean survival time, dose: 200.0 mg/kg/injection, schedule: Q04DX003 (ip), vehicle: saline with Tween-80 101 % of control | endpoint: mean survival time, dose: 400.0 mg/kg/injection, schedule: Q04DX003 (ip), vehicle: saline with Tween-80 86 % of control

C=C1C(=O)OC2CC1C(OC(C)=O)CC1(C)OC1CCC1(C)OC1CCC2(C)O (centres undefined)
inactive: endpoint: mean survival time, dose: 6.25 mg/kg/injection, schedule: Q01DX009 (ip), vehicle: Klucel (hydroxypropylcellulose) (HPC) 102 % of control | endpoint: mean survival time, dose: 12.5 mg/kg/injection, schedule: Q01DX009 (ip), vehicle: Klucel (hydroxypropylcellulose) (HPC) 107 % of control | endpoint: mean survival time, dose: 25.0 mg/kg/injection, schedule: Q01DX009 (ip), vehicle: Klucel (hydroxypropylcellulose) (HPC) 105 % of control

CN=C1C=C(NC)C(F)(F)C1(F)F
inactive: endpoint: mean survival time, dose: 6.25 mg/kg/injection, schedule: Q04DX003 (ip), vehicle: saline 98 % of control | endpoint: mean survival time, dose: 12.5 mg/kg/injection, schedule: Q04DX003 (ip), vehicle: saline 101 % of control | endpoint: mean survival time, dose: 25.0 mg/kg/injection, schedule: Q04DX003 (ip), vehicle: saline 101 % of control

O=c1oc2c(ccc3ccccc32)c(O)c1-c1ccccc1
inactive: [5] 103 % of control | [6] 103 % of control

Cn1cnc([N+](=O)[O-])c1Sc1ncn[nH]1
inactive: endpoint: mean survival time, dose: 12.5 mg/kg/injection, schedule: Q01DX009 (ip), vehicle: saline 104 % of control | endpoint: mean survival time, dose: 12.5 mg/kg/injection, schedule: Q01DX009 (ip), vehicle: suspension in saline 101 % of control | endpoint: mean survival time, dose: 25.0 mg/kg/injection, schedule: Q01DX009 (ip), vehicle: saline 107 % of control | endpoint: mean survival time, dose: 25.0 mg/kg/injection, schedule: Q01DX009 (ip), vehicle: suspension in saline 104 % of control | endpoint: mean survival time, dose: 50.0 mg/kg/injection, schedule: Q01DX009 (ip), vehicle: saline 104 % of control | endpoint: mean survival time, dose: 50.0 mg/kg/injection, schedule: Q01DX009 (ip), vehicle: suspension in saline 104 % of control | endpoint: mean survival time, dose: 100.0 mg/kg/injection, schedule: Q01DX009 (ip), vehicle: saline 102 % of control | endpoint: mean survival time, dose: 100.0 mg/kg/injection, schedule: Q01DX009 (ip), vehicle: suspension in saline 106 % of control | endpoint: mean survival time, dose: 200.0 mg/kg/injection, schedule: Q01DX009 (ip), vehicle: saline 107 % of control | endpoint: mean survival time, dose: 400.0 mg/kg/injection, schedule: Q01DX009 (ip), vehicle: saline 104 % of control

OC12CC3CC(CC(C3)C1)C2
inactive: endpoint: mean survival time, dose: 50.0 mg/kg/injection, schedule: Q01DX001 (ip), vehicle: saline with Tween-80 104 % of control | endpoint: mean survival time, dose: 100.0 mg/kg/injection, schedule: Q01DX001 (ip), vehicle: saline with Tween-80 116 % of control | endpoint: mean survival time, dose: 200.0 mg/kg/injection, schedule: Q01DX001 (ip), vehicle: saline with Tween-80 98 % of control

CC(=O)SCC1C(=O)n2c(cc3ccccc32)C(=O)N1C (centres undefined)
inactive: [7] 89 % of control | [8] 96 % of control | [9] 101 % of control

CC/C=C(\CC)C(=O)O
inactive: [5] 109 % of control | [6] 105 % of control | [10] 105 % of control

C[Si](C)(C)OC1CC(=O)OC1n1cc(F)c(=O)[nH]c1=O (centres undefined)
inactive: endpoint: median survival time, dose: 12.5 mg/kg/injection, schedule: Q01DX005 (ip), vehicle: saline 103 % of control | endpoint: median survival time, dose: 25.0 mg/kg/injection, schedule: Q01DX005 (ip), vehicle: saline 107 % of control | endpoint: median survival time, dose: 50.0 mg/kg/injection, schedule: Q01DX005 (ip), vehicle: saline 113 % of control | endpoint: median survival time, dose: 100.0 mg/kg/injection, schedule: Q01DX005 (ip), vehicle: saline 116 % of control

O=[N+]([O-])c1cc(Cl)ccc1O
inactive: [6] 93 % of control | [10] 90 % of control

COc1ccc(-c2cnc(C(N)=O)c(=O)[nH]2)cc1
inactive: [6] 100 % of control | [10] 96 % of control | endpoint: mean survival time, dose: 400.0 mg/kg/injection, schedule: Q01DX009 (ip), vehicle: saline with Tween-80 101 % of control

Nc1ccc(Cl)cc1C(=O)c1ccc[nH]1
inactive: [11] 101 % of control | endpoint: mean survival time, dose: 100.0 mg/kg/injection, schedule: Q04DX003 (ip), vehicle: saline 94 % of control | [12] 98 % of control | endpoint: mean survival time, dose: 200.0 mg/kg/injection, schedule: Q04DX003 (ip), vehicle: saline 94 % of control | [13] 93 % of control | endpoint: mean survival time, dose: 400.0 mg/kg/injection, schedule: Q04DX003 (ip), vehicle: saline 94 % of control

O=C(O)c1nn2c(=O)c3cccc4cccc(c43)c2c1C(=O)O
inactive: [14] 95 % of control | [7] 98 % of control | [8] 95 % of control | [9] 95 % of control

Cc1ccc(S(=O)(=O)OCC2C3CCC(C3)C2COS(=O)(=O)c2ccc(C)cc2)cc1 (centres undefined)
inactive: [14] 95 % of control | [7] 95 % of control | [8] 95 % of control and 98 % of control

O=C1C=CC(=O)C1
inactive: endpoint: mean survival time, dose: 5.0 mg/kg/injection, schedule: Q04DX002 (ip), vehicle: saline with Tween-80 108 % of control

CCOC(=O)c1cc([N+](=O)[O-])c[nH]1
inactive: endpoint: median survival time, dose: 25.0 mg/kg/injection, schedule: Q01DX009 (ip), vehicle: Klucel (hydroxypropylcellulose) (HPC) 101 % of control | endpoint: median survival time, dose: 50.0 mg/kg/injection, schedule: Q01DX009 (ip), vehicle: Klucel (hydroxypropylcellulose) (HPC) 98 % of control | endpoint: median survival time, dose: 100.0 mg/kg/injection, schedule: Q01DX009 (ip), vehicle: Klucel (hydroxypropylcellulose) (HPC) 97 % of control | endpoint: median survival time, dose: 200.0 mg/kg/injection, schedule: Q01DX009 (ip), vehicle: Klucel (hydroxypropylcellulose) (HPC) 98 % of control

CCCCCCCCCCCCCCCCN(C)C
inactive: endpoint: mean survival time, dose: 25.0 mg/kg/injection, schedule: Q04DX003 (ip), vehicle: saline with Tween-80 94 % of control | endpoint: mean survival time, dose: 50.0 mg/kg/injection, schedule: Q04DX003 (ip), vehicle: saline with Tween-80 95 % of control

CC(C)(O)C(=NCc1ccccc1)c1ccccc1
inactive: [11] 102 % of control | [12] 93 % of control | [13] 104 % of control

CC1CCC(C(C)C)C(OC(=O)N/N=C/N(C)C)C1 (centres undefined)
inactive: endpoint: mean survival time, dose: 100.0 mg/kg/injection, schedule: Q01DX009 (ip), vehicle: other 95 % of control | endpoint: mean survival time, dose: 200.0 mg/kg/injection, schedule: Q01DX009 (ip), vehicle: other 119 % of control

O=c1ccn(C2CC(O)C(COC(c3ccccc3)(c3ccccc3)c3ccccc3)O2)c(=O)[nH]1 (centres undefined)
inactive: endpoint: median survival time, dose: 12.5 mg/kg/injection, schedule: Q01DX005 (ip), vehicle: saline with Tween-80 98 % of control and 97 % of control | endpoint: median survival time, dose: 25.0 mg/kg/injection, schedule: Q01DX005 (ip), vehicle: saline with Tween-80 99 % of control and 92 % of control | endpoint: median survival time, dose: 50.0 mg/kg/injection, schedule: Q01DX005 (ip), vehicle: saline with Tween-80 99 % of control and 96 % of control | endpoint: median survival time, dose: 100.0 mg/kg/injection, schedule: Q01DX005 (ip), vehicle: saline with Tween-80 100 % of control and 96 % of control | endpoint: median survival time, dose: 200.0 mg/kg/injection, schedule: Q01DX005 (ip), vehicle: saline with Tween-80 100 % of control and 98 % of control

[Cl][Pt+].[NH-]c1ccccc1C=Nc1ccccc1C=O
inactive: endpoint: median survival time, dose: 11.5 mg/kg/injection, schedule: Q04DX003 (ip), vehicle: saline with Tween-80 100 % of control | endpoint: median survival time, dose: 23.0 mg/kg/injection, schedule: Q04DX003 (ip), vehicle: saline with Tween-80 105 % of control | endpoint: median survival time, dose: 46.0 mg/kg/injection, schedule: Q04DX003 (ip), vehicle: saline with Tween-80 105 % of control | endpoint: median survival time, dose: 92.0 mg/kg/injection, schedule: Q04DX003 (ip), vehicle: saline with Tween-80 97 % of control | endpoint: median survival time, dose: 184.0 mg/kg/injection, schedule: Q04DX003 (ip), vehicle: saline with Tween-80 98 % of control

O=C(CNC(=O)Nc1ccc(F)cc1)N/N=C/c1cc(Br)ccc1O
inactive: [5] 100 % of control | [6] 96 % of control | [10] 88 % of control

CCS(=O)(=O)CCNCCS(=O)(=O)CC
inactive: [8] 104 % of control | [9] 93 % of control | endpoint: mean survival time, dose: 400.0 mg/kg/injection, schedule: Q04DX002 (ip), vehicle: saline with Tween-80 104 % of control

Reference: PubChem BioAssay AID256 (DTP/NCI, 2004)
